From patent publication US5605929A, “Methods and compositions for inhibiting 5α-reductase activity” (priority 1995, dated 1997) come the findings set out here.

In assay [1] the target is T1, 5α-Reductase of Rat Liver Microsomes (Rattus norvegicus, UniProt P24008).
T1 sequence (P24008 1-259): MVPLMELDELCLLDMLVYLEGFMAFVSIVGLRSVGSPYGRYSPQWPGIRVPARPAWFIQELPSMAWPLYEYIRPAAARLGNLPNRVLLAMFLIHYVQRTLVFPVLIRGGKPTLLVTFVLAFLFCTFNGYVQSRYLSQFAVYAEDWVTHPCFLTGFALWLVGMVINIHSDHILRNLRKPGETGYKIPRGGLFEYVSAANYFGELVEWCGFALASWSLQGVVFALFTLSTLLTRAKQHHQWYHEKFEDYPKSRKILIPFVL
Briefly: [3H]4-MA binding assay, rat liver microsomes (tea catechins). The note with it: for inhibition at 5 µM / inhibition at 10 µM / inhibition at 20 µM / inhibition at 40 µM / inhibition at 200 µM: read-out: % Inhibition of [^3 H]4-MA binding; for inhibitory activity: concentrations up to 200 μM. The method, then:
Microsomes were prepared as described previously (Liang and Liao, 1992) from the liver of adult Sprague-Dawley female rats or Rat-1A cells expressing a specific type of human 5α-reductase. Each study was carried out in duplicate or triplicate which were usually within 10% of each other. Several studies were preformed to assure that the results shown are representative. The data presented was based on the rate of reaction.
[^3 H]4-MA binding assay were described in detail previously (Liang and Liao, 1992; Liang et al., 1983). […] The reaction was started by the addition of 25 μl of microsomes (25 μg protein). After 30-60 min incubation at 0° C., the [^3 H]4-MA bound to microsomes was collected on a Whatman GF/F glass fiber, washed and radioactivity determined (Liang and Liao, 1992).
Background: Microsomes from liver hold many membrane-bound enzymes, among them those of drug oxidation.

For assay [2], the target named is T1, 5α-Reductase of Rat Liver Microsomes. The note with it: for stimulation or inhibition of [^3 H]4-MA binding: 40 μM.
Assay [3] has the same target. Briefly: biochemical. The conditions noted are these: for activation at 200 µM: 1 h, read-out: stimulation of [^3 H]4-MA binding.
The mark [4] stands for this setting: read-out: % Inhibition of [^3 H]4-MA binding, Table 2, 5 μM.
Setting [5] is: read-out: % Inhibition of [^3 H]4-MA binding, Table 2, 10 μM.
Where [6] appears, read: read-out: % Inhibition of [^3 H]4-MA binding, Table 2, 40 μM.
Setting [7] is: read-out: % Inhibition of [^3 H]4-MA binding, Table 2, 200 μM.
Where [8] appears, read: read-out: % Inhibition of [^3 H]4-MA binding.

Read-outs that look alike come from different tables or passages of the source.

Turning to `Oc1cc(O)c2c(c1)O[C@H](c1ccc(O)c(O)c1)[C@@H](O)C2` (relative stereo) [(±)Catechin], in assay [1] (Table 8, 5 μM), the inhibition – broadly, the share of the control response that was lost under treatment – at 5 µM is under 10%. The inhibition at 10 µM in assay [1] (Table 8, 10 μM) was under 10%. The inhibition at 20 µM in assay [1] (Table 8, 20 μM) is under 10%. In addition, in assay [1] (Table 8, 40 μM), the inhibition at 40 µM was under 10%. Also, in assay [1] (Table 8, 200 μM), the inhibition at 200 µM was under 10%.
With `CCCCCCCC/C=C\CCCCCCCC(=O)OCC(O)COC(=O)CCCCCCC/C=C\CCCCCCCC` [3-diolein], in assay [2], the “inhibitory activity in [^3 H]4-MA binding assay” value was “slightly stimulatory”.
Regarding `CC1=C(/C=C/C(C)=C/C=C/C(C)=C\C(=O)O)C(C)(C)CCC1` [13-cis-retinoic acid], in assay [3], the activation at 200 µM came to 58%. Further, in assay [2], the “inhibitory activity in [^3 H]4-MA binding assay” value is given as “slightly stimulatory” and the “stimulation or inhibition of [^3 H]4-MA binding” value (“stimulation or inhibition” for short) is listed as “no stimulation or inhibition”.
As for `CC1=C(/C=C/C(C)=C/C=C/C(C)=C\CO)C(C)(C)CCC1` [13-cis-retinol], the activation at 200 µM in assay [3] was 58%. In assay [2], the “inhibitory activity in [^3 H]4-MA binding assay” value is “slightly stimulatory” and the “stimulation or inhibition” value is reported as “no stimulation or inhibition”.
As to `Oc1cc(O)c2c(c1)O[C@H](c1ccc(O)c(O)c1)[C@@H](O)C2` [(+)Catechin], the inhibition at 5 µM in assay [1] (Table 8, 5 μM) is under 10%. In addition, in assay [1] (Table 8, 10 μM), the inhibition at 10 µM is under 10%. Moreover, the inhibition at 20 µM in assay [1] (Table 8, 20 μM) is under 10%. In addition, the inhibition at 40 µM in assay [1] (Table 8, 40 μM) is under 10%. Also, in assay [1] (Table 8, 200 μM), the inhibition at 200 µM is under 10%.
As for `Oc1cc(O)c2c(c1)O[C@@H](c1cc(O)c(O)c(O)c1)[C@H](O)C2` [(-)Gallocatechin], in assay [1], the inhibition at 5 µM is under 10%, the inhibition at 10 µM is under 10%, the inhibition at 20 µM is under 10% and the inhibition at 40 µM is under 10%. Also, the inhibition at 200 µM in assay [1] was under 10%.
Turning to `O=C(O[C@H]1Cc2c(O)cc(O)cc2O[C@@H]1c1ccc(O)c(O)c1)c1cc(O)c(O)c(O)c1` [CG, (-)Catechin-3-gallate], in assay [1], the inhibition at 5 µM is 12%, the inhibition at 10 µM came to 31%, the inhibition at 20 µM was 53% and the inhibition at 40 µM was determined as 73%. The inhibition at 200 µM in assay [1] is 91%. The IC50 (as a rule, the concentration needed to halve the response being measured) in assay [1] (type 1 5α-reductase of rat liver microsomes, read-out: IC50) amounted to 18 µM.
For `Cn1c(=O)c2c(ncn2C)n(C)c1=O` [Caffeine, reference compound], in assay [1], the “inhibitory activity” value is listed as “not active”.
With `CC/C=C\C/C=C\C/C=C\C/C=C\C/C=C\C/C=C\CCC(=O)O` [Docosahexaenoic acid, cis-4,7,10,13,16,19-docosahexaenoic acid], in assay [3], the concentration for half-maximal inhibition (IC50) is 47 µM. Besides, the inhibition at 10 µM is under 10% in assay [3] (read-out: % Inhibition of [^3 H]4-MA binding, Table 1, 10 μM) and 18% in assay [3] (setting [5]). Further, the inhibition at 40 µM in assay [3] (read-out: % Inhibition of [^3 H]4-MA binding, Table 1, 40 μM) turned out to be 27 ± 1%; in assay [3] (setting [6]) it was 49%. Besides, the inhibition at 200 µM in assay [3] (read-out: % Inhibition of [^3 H]4-MA binding, Table 1, 200 μM) amounted to 87 ± 6%; in assay [3] (setting [7]) it was 86%. Further, the inhibition at 5 µM in assay [3] (setting [4]) was under 10%. Also, in assay [2], the “inhibitory activity in [^3 H]4-MA binding assay” value is “potent inhibitor”.
With `CCCCC/C=C\C/C=C\C/C=C\CCCCC(=O)OCC(O)CO` (centres unmarked) [Monoγ-Linolenin], the inhibition at 5 µM in assay [3] (setting [4]) was under 10%. The inhibition at 10 µM in assay [3] (setting [5]) was under 10%. Also, the inhibition at 40 µM in assay [3] (setting [6]) turned out to be 35%. In addition, the inhibition at 200 µM in assay [3] (setting [7]) was 87%. The compound further showed an IC50 in assay [2] of 86 µM.
Take `CCCC/C=C\CCCCCCCC(=O)O` [Myristoleic acid]: in assay [3] (setting [8]), the inhibition at 5 µM is under 10%, the inhibition at 10 µM was under 10%, the inhibition at 40 µM came to 25 ± 4% and the inhibition at 200 µM was 43 ± 1%. In assay [2] (Table 2, 10 μM), the “% Inhibition of [^3 H]4-MA binding” value was “NA (less than 10% inhibition were considered not active (NA))”.
Take `CCCCC[C@H](O)/C=C/[C@@H]1[C@H]2C/C(=C/CCCC(=O)O)O[C@H]2C[C@H]1O` [Prostaglandin 12]: the “inhibitory activity in [^3 H]4-MA binding assay” value in assay [2] is recorded as “not active”.
Consider `CCCCC[C@H](O)/C=C/[C@H]1[C@H](O)CC(=O)[C@@H]1C/C=C\CCCC(=O)O` [Prostaglandin E2], for which the “inhibitory activity in [^3 H]4-MA binding assay” value in assay [2] was “not active”.
On the same count and under the same terms, the value for `CCCCC[C@H](O)/C=C/[C@@H]1[C@@H](C/C=C\CCCC(=O)O)[C@@H](O)C[C@H]1O` [Prostaglandin F2a] was “not active”.
`CC/C=C\C/C=C\C/C=C\CCCCCCCC(=O)OC` [linolenic acid methyl ester]: the “% Inhibition of [^3 H]4-MA binding” value in assay [2] (Table 1, 200 μM, 200 µM) was 32%.
`CCCCC[C@H](O)/C=C/[C@H]1C=CC(=O)[C@@H]1CCCCCCC(=O)O` [prostaglandin A1]: in assay [2] (0.2 mM), the “inhibitory activity in [^3 H]4-MA binding assay” value is “somewhat active”.
With `CCCCC[C@H](O)/C=C/[C@H]1C=CC(=O)[C@@H]1C/C=C\CCCC(=O)O` [prostaglandin A2], the “inhibitory activity in [^3 H]4-MA binding assay” value in assay [2] (0.2 mM) was “somewhat active”.
As for `CCCCC[C@H](O)/C=C/C1=C(CCCCCCC(=O)O)C(=O)CC1` [prostaglandin B1], the “inhibitory activity in [^3 H]4-MA binding assay” value in assay [2] (0.2 mM) is reported as “somewhat active”.
On to `CCCCC[C@H](O)/C=C/C1=C(C/C=C\CCCC(=O)O)C(=O)CC1` [prostaglandin B2], for which the “inhibitory activity in [^3 H]4-MA binding assay” value in assay [2] (0.2 mM) is “somewhat active”.
`CCCCC[C@H](O)/C=C/[C@H]1C(=O)C[C@H](O)[C@@H]1C/C=C\CCCC(=O)O` [prostaglandin D2]: the “inhibitory activity in [^3 H]4-MA binding assay” value in assay [2] (0.2 mM) is “somewhat active”.
As to `CCCCC[C@H](O)/C=C/[C@H]1[C@H](O)CC(=O)[C@@H]1CCCCCCC(=O)O` [prostaglandin E1], in assay [2] (0.2 mM), the “inhibitory activity in [^3 H]4-MA binding assay” value is reported as “somewhat active”.
As for `CCCCC[C@H](O)/C=C/[C@@H]1[C@@H](CCCCCCC(=O)O)[C@@H](O)C[C@H]1O` [prostaglandin F1a], in assay [2] (0.2 mM), the “inhibitory activity in [^3 H]4-MA binding assay” value is “somewhat active”.
With `O=c1c(O)c(-c2ccc(O)c(O)c2)oc2cc(O)cc(O)c12` [quercetin, reference compound], in assay [1], the “inhibitory activity” value was “inactive”.
Consider `CC1=C(/C=C/C(C)=C/C=C/C(C)=C/C=O)C(C)(C)CCC1` [retinal], for which the activation at 200 µM in assay [3] amounted to 58%. Moreover, the “stimulation or inhibition” value in assay [2] is recorded as “no stimulation or inhibition”.
For the compound `CC1=C(/C=C/C(C)=C/C=C/C(C)=C/C(=O)O)C(C)(C)CCC1` [retinoic acid], in assay [2], the “inhibitory activity in [^3 H]4-MA binding assay” value was “inactive”.
For `CC1=C(/C=C/C(C)=C/C=C/C(C)=C/CO)C(C)(C)CCC1` [retinol], the “inhibitory activity in [^3 H]4-MA binding assay” value in assay [2] is “slightly stimulatory”.
In the case of Phosphatidylcholine, in assay [2], the “inhibitory activity in [^3 H]4-MA binding assay” value is listed as “slightly stimulatory”.
In the case of carotenes, the “inhibitory activity in [^3 H]4-MA binding assay” value in assay [2] was “inactive”.
The compound di-γ-linolenin registered an IC50 in assay [2] of over 200 µM. The “% Inhibition of [^3 H]4-MA binding” value in assay [2] (Table 2, 10 μM) was “NA (less than 10% inhibition were considered not active (NA))”; in assay [2] (Table 2, 40 μM) it was “NA (less than 10% inhibition were considered not active (NA))”; in assay [2] (Table 2, 200 μM), “NA (less than 10% inhibition were considered not active (NA))”.
In assay [2], heneicosene nitrile displayed a half-maximal inhibitory concentration (IC50) of over 200 µM.
Turning to methyl docosatetraenoate, the IC50 in assay [2] was over 200 µM.
Consider naphthaflavone [reference compound], for which, in assay [1], the “inhibitory activity” value is “inactive”.
Regarding phosphatidyl ethanolamine, in assay [2], the “inhibitory activity in [^3 H]4-MA binding assay” value was “slightly stimulatory”.
